Laboratory results: ChEMBL document CHEMBL5375968, “Peptide TK-HR from the Skin of Chinese Folk Medicine Frog Hoplobatrachus Rugulosus Accelerates Wound Healing via the Activation of the Neurokinin-1 Receptor” (J Med Chem, 2023)
Activity calls are given as the source filed them. No cut-off for these calls is given here.

Columns and labels:
Neutrophil [1] = assay: Induction of cell migration in Aprepitant-treated BALB/c mouse neutrophils at 5 to 40 uM incubated for 8 hrs by transwell migration assay; type: functional, cell-based; settings: dose 5-40 µM
Neutrophil [2] = assay: Induction of ROS production in BALB/c mouse neutrophils at 10 to 20 uM incubated for 2 hrs by DCFH-DA staining based analysis; type: functional, cell-based; settings: dose 10-20 µM
RAW264.7 [3] = assay: Induction of cell migration in Aprepitant-treated mouse RAW264.7 cells at 5 to 20 uM incubated for 24 hrs by crystal violet staining based microscopy; type: functional; settings: dose 5-20 µM
RAW264.7 [4] = assay: Induction of phagocytosis in mouse RAW264.7 cells cultured with Escherichia coli ATCC 25922 assessed as number of engulfed bacteria at 10 uM incubated for 24 hrs followed by bacterial exposure measured after 1 hr by plate counting method (reference value: 225); type: functional; settings: time 25 hrs
RAW264.7 [5] = assay: Induction of phagocytosis in mouse RAW264.7 cells cultured with Escherichia coli ATCC 25922 assessed as number of engulfed bacteria at 20 uM incubated for 24 hrs followed by bacterial exposure measured after 1 hr by plate counting method (reference value: 225); type: functional; settings: time 25 hrs
RAW264.7 [6] = assay: Induction of IL-1beta expression in mouse RAW264.7 cells incubated for 24 hrs by ELISA; type: functional, cell-based; settings: dose 2.5-20 µM
[7] = Induction of TGF-beta1 level in mouse RAW264.7 cells at 10 uM incubated for 24 hrs by ELISA; type: functional
RAW264.7 [8] = assay: Effect on total ERK level in mouse RAW264.7 cells at 2.5 to 20 uM incubated for 4 hrs by Western blot analysis; type: functional, cell-based; settings: dose 2.5-20 µM
RAW264.7 [9] = assay: Effect on total JNK level in mouse RAW264.7 cells at 2.5 to 20 uM incubated for 4 hrs by Western blot analysis; type: functional, cell-based; settings: dose 2.5-20 µM
RAW264.7 [10] = assay: Upregulation of phosphorylated Smad2 level in mouse RAW264.7 cells at 2.5 to 20 uM incubated for 4 hrs by Western blot analysis; type: functional, cell-based; settings: dose 2.5-20 µM
RAW264.7 [11] = assay: Upregulation of phosphorylated Smad3 level in mouse RAW264.7 cells at 2.5 to 20 uM incubated for 4 hrs by Western blot analysis; type: functional, cell-based; settings: dose 2.5-20 µM
RAW264.7 [12] = assay: Upregulation of phosphorylated Smad3 level in Aprepitant-treated mouse RAW264.7 cells at 2.5 to 20 uM incubated for 4 hrs by Western blot analysis; type: functional, cell-based; settings: dose 2.5-20 µM
HUVEC [13] = assay: Induction of cell migration in Aprepitant-treated HUVEC cells assessed as healing rate at 20 uM measured after 48 hrs by scratch healing assay (reference value: 57.2 %); type: functional, Homo sapiens
HUVEC [14] = assay: Induction of cell migration in Mitomycin C-treated HUVEC cells assessed as healing rate at 20 uM measured after 24 hrs by scratch healing assay (reference value: 30.2 %); type: functional, Homo sapiens
HUVEC [15] = assay: Induction of cell migration in Mitomycin C-treated HUVEC cells assessed as healing rate at 20 uM measured after 48 hrs by scratch healing assay (reference value: 51.6 %); type: functional, Homo sapiens
HUVEC [16] = assay: Angiogenic activity in HUVEC cells assessed as increase in tube formation at 10 uM measured for 4 hrs by microscopic analysis relative to control; type: functional, Homo sapiens
HUVEC [17] = assay: Angiogenic activity in Aprepitant-treated HUVEC cells assessed as increase in tube formation at 20 uM measured for 4 hrs by microscopic analysis; type: functional, cell-based; settings: Homo sapiens
Aorta [18] = assay: Ex vivo angiogenic activity in C57BL/6 mouse aortic ring assessed as increase in sprouting by measuring vessel outgrowth area at 10 uM measured for 7 days by microscopic analysis relative to control; type: functional; settings: time 7 day
Aorta [19] = assay: Ex vivo angiogenic activity in C57BL/6 mouse aortic ring assessed as increase in sprouting by measuring vessel outgrowth area at 20 uM measured for 7 days by microscopic analysis relative to control; type: functional; settings: time 7 day
[20] = Induction of wound healing in BALB/c mouse model of full-thickness wounds at 50 ug/ml, TOP bid measured after 8 days (reference value: 81.0 %); type: functional; settings: dose 50 µg/ml, time 8 day
[21] = Induction of wound healing in BALB/c mouse model of full-thickness wounds at 100 ug/ml, TOP bid measured after 6 days (reference value: 71.7 %); type: functional; settings: dose 100 µg/ml, time 6 day
[22] = Induction of wound healing in BALB/c mouse model of full-thickness wounds at 200 ug/ml, TOP bid measured after 4 days (reference value: 48.6 %); type: functional; settings: dose 200 µg/ml, time 4 day
[23] = Induction of wound healing in BALB/c mouse model of full-thickness wounds at 200 ug/ml, TOP bid measured after 6 days (reference value: 71.7 %); type: functional; settings: dose 200 µg/ml, time 6 day
[24] = Induction of wound healing in BALB/c mouse model of full-thickness wounds at 50 ug/ml, TOP bid pretreated with Aprepitant for 2 hrs followed by compound administration measured after 6 days (reference value: 69.3 %); type: functional; settings: dose 50 µg/ml, time 6 day
Splenic fibroblast [25] = assay: Effect on cell proliferation in human […] fibroblasts at 5 to 40 uM incubated for 24 hrs by MTT assay; type: functional, cell-based; settings: dose 5-40 µM
Splenic fibroblast [26] = assay: Effect on cell migration in human […] fibroblasts at 20 uM incubated upto 48 hrs by scratch healing assay; type: functional, cell-based
NIH3T3 = assay: Effect on cell migration in mouse 3T3 cells at 20 uM incubated upto 48 hrs by scratch healing assay; type: functional, cell-based
Mus musculus [27] = species on record: Mus musculus; assay: Induction of wound healing in BALB/c mouse model of full-thickness wounds assessed as parallel alignment of collagen fibers at 50 to 200 ug/ml, TOP bid measured after 8 days by Masson's Trichome staining based analysis; type: functional; settings: dose 50-200 µg/ml, time 8.0 day
Mus musculus [28] = species on record: Mus musculus; assay: Induction of wound healing in BALB/c mouse model of full-thickness wounds assessed as increase in phosphorylated Smad3 level in wound skin at 50 to 200 ug/ml, TOP bid measured after 4 days by Western blot analysis; type: functional; settings: dose 50-200 µg/ml, time 4.0 day
Mus musculus [29] = species on record: Mus musculus; assay: Induction of wound healing in BALB/c mouse model of full-thickness wounds assessed as increase in recruitment of total macrophages in wound skin at 50 ug/ml, TOP bid measured after 2 days by IHC analysis; type: functional; settings: dose 50.0 µg/ml, time 2.0 day
Mus musculus [30] = species on record: Mus musculus; assay: Induction of wound healing in BALB/c mouse model of full-thickness wounds assessed as decrease in recruitment of M1-type macrophages in wound skin at 50 ug/ml, TOP bid measured after 4 days by IHC analysis; type: functional; settings: dose 50.0 µg/ml, time 4.0 day
Mus musculus [31] = species on record: Mus musculus; assay: Induction of wound healing in BALB/c mouse model of full-thickness wounds assessed as increase in recruitment of M2-type macrophages in wound skin at 50 ug/ml, TOP bid measured after 4 days by IHC analysis; type: functional; settings: dose 50.0 µg/ml, time 4.0 day
Mus musculus [32] = species on record: Mus musculus; assay: Induction of wound healing in BALB/c mouse model of full-thickness wounds assessed as reduction in epidermal cells in wound skin at 50 ug/ml, TOP bid measured after 4 days by IHC analysis; type: functional, cell-based; settings: dose 50.0 µg/ml, time 4.0 day
Mus musculus [33] = species on record: Mus musculus; assay: Induction of wound healing in BALB/c mouse model of full-thickness wounds assessed as increase in endothelial cells in wound skin at 50 ug/ml, TOP bid measured after 4 days by IHC analysis; type: functional, cell-based; settings: dose 50.0 µg/ml, time 4.0 day

With H-KPNPDRFYGLM-NH2 the Activity (Neutrophil [1]) was “inactive”, the Activity (Neutrophil [2]) was “Active” and the Activity (RAW264.7 [3]) was “inactive”. The Activity (RAW264.7 [4]) was 338, the Activity (RAW264.7 [5]) was 350 and the Activity (RAW264.7 [6]) was “Dose-Dependent Effect”. For the same substance, the Activity [7] was 90.7 pg/mL, the Activity (RAW264.7 [8]) was “inactive” and the Activity (RAW264.7 [9]) was “inactive”. The Activity (RAW264.7 [10]) was “Active”, the Activity (RAW264.7 [11]) was “Active” and the Activity (RAW264.7 [12]) was “inactive”. For the same substance, the Activity (HUVEC [13]) was 65%, the Activity (HUVEC [14]) was 43.7% and the Activity (HUVEC [15]) was 78.7%. For the same substance, the Activity (HUVEC [16]) was 139.5%, the Activity (HUVEC [17]) was “inactive” and the Activity (Aorta [18]) was 117.3%. It also gave an Activity (Aorta [19]) of 193.8%, an Activity [20] of 93.1% and an Activity [21] of 93.9%. The Activity [22] was 77.1%, the Activity [23] was 100% and the Activity [24] was 69.4%. The Activity (Splenic fibroblast [25]) was “inactive”, the Activity (Splenic fibroblast [26]) was “inactive” and the Activity (NIH3T3) was “inactive”. For the same substance, the Activity (Mus musculus [27]) was “Active”, the Activity (Mus musculus [28]) was “Active” and the Activity (Mus musculus [29]) was “Active”. The Activity (Mus musculus [30]) was “Active”, the Activity (Mus musculus [31]) was “Active” and the Activity (Mus musculus [32]) was “Active”. For the same substance, the Activity (Mus musculus [33]) was “Active”.
